Experimental data as given in US20240374763A1, “DIAGNOSIS AND MONITORING USING EXTRADOMAIN-B FIBRONECTIN TARGETED PROBES” (Case Western Reserve University, priority 2020, published 2024).
Structures can show the parent of a compound that is named as a salt. No end group written: not given here.

Assays:
EDB-FN [1] = target: T1, EDB-FN (Homo sapiens, UniProt P02751); experiment: ZD2-Cy5.5 staining of human tissue; design: from tissue; host or cells: deparaffinized sections of human pancreatic cancer, PanIN and normal pancreas; conditions: 500 nM
Description: Tissue sections from PaCa patients (Case Comprehensive Cancer Center, Cleveland, OH) were deparaffinized with xylene, ethanol, and washed with water. Blocking was performed with 10% goat serum (Invitrogen, Carlsbad, CA) in PBS with 0.1% Tween 20 (PBS-T) for 30 minutes and incubated with 500 nM ZD2-Cy5.5 in PBS-T for 1 hour at 37° C. Following three washes with PBS-T, the sections were mounted using Fluoroshield mounting medium (Abcam, Cambridge, UK). Images were acquired on a FV1000 (Olympus, Waltham, MA) confocal microscope using pre-programmed emission and excitation filters for Cy5.5 (excitation: 635 nm; emission: 693 nm) and DAPI (excitation: 405 nm; emission: 461 nm), using a 10× objective lens. All tissue samples were imaged at the same laser power and sensor gain. Images were generated from single-channel grayscale images using FIJI software.

EDB-FN [2] = experiment: ZD2-Cy5.5 staining of frozen tissue sections, BC-1 blocking experiment; conditions: PaCa xenograft tissue sections, excess BC1 antibody
Description: For assessment of binding specificity of ZD2 peptide, flash frozen samples of tumor and normal tissues were collected from the euthanized tumor bearing mice and embedded in optimal cutting temperature media. The embedded samples were then immersed in liquid nitrogen for 5 minutes and transferred to −80° C. for storage before cryosectioning. Tissue sections were blocked for 1 hr in PBS containing 0.05% Tween-20 and 10% normal goat serum (Gibco, Gaithersburg, MD) and then stained with BC-1 primary monoclonal antibody (1:400) or ZD2-Cy5.5 (500 nM) at 4° C. overnight or room temperature incubation for 2.5 hr, respectively, and then washed with PBS-T buffer. Secondary Alexa Fluor 594 anti-rabbit was incubated with the BC-1 treated sections for 1 hour at room temperature (1:1000). For the blocking experiment, the tissue sections were first incubated with an excess of BC1 antibody at 4° C. overnight, then washed three times with PBS-T. The sections were then incubated with ZD2-Cy5.5 at room temperature incubation for 2.5 hr. The stained sections were washed with PBS-T buffer and images were acquired on an Olympus FV1000 (Waltham, MA) confocal microscope using pre-programmed emission and excitation filters for Cy5.5 (excitation: 635 nm; emission: 693 nm) and DAPI (excitation: 405 nm; emission: 461 nm), using a 10× objective lens.

EDB-FN [3] = target: T1, EDB-FN; experiment: Peptide binding study of OSCC spheroids with ZD2-Cy5.5; format: cell-based; conditions: ZD2-Cy5.5 125 nM, 15 minutes, ratio to Hoechst
Description: Coverslip plates (4-well, Ibidi GmbH, Martinsried, Germany) were coated with Cultrex Basement Membrane Matrix (350 μL, Trevigen, Gaithersburg, MA, USA). For spheroid formation, 2×10^5 OSCC cells were seeded into prepared wells, incubated for 2 days, and photographed with the Moticam T2 camera (Motic, Hong Kong, China). For peptide binding, 1×10^5 cells were seeded into prepared wells and incubated for 2 days. Spheroids were stained with ZD2-Cy5.5 (125 nM), synthesized as previously described, and Hoechst (1:2000 dilution) (Invitrogen, Carlsbad, CA, USA) dyes for 15 minutes, washed 3× with DPBS (Thermo Fisher Scientific), and imaged with confocal laser scanning microscopy using the Olympus FV1000 system (Olympus Life Science, Tokyo, Japan).
Confocal fluorescence images were analyzed using FIJI. For quantification, images were thresholded to generate ROIs of both stains. For spheroid size, the average size of Hoechst ROIs was calculated. For staining intensity, the average signal intensities of ZD2-Cy5.5 and Hoechst ROIs were calculated, along with the ratio between the average intensities.

[4] = tested on: phospho-AKT (T308 and S473); experiment: MK2206-HCl treatment, western blot of phospho-AKT; format: cell-based; conditions: invasive cell derivatives; 2 μM (MCF7) or 4 μM (MDA-MB-468) for 2 days
Description: The invasive TGF-β-treated and drug-resistant MCF7 and MDA-MB-468 populations were treated with MK2206-HCl, a pan-AKT inhibitor, purchased from SelleckChem (Boston, MA). For this treatment, 8×10^5 cells were plated on 6-well plates. After 24 h of attachment, the cells were treated with MK2206-HCl for 2 days (2 μM dose for MCF7 cells and 4 μM dose for MDA-MB-468 cells). Cells treated with equivalent volume of DMSO were used as controls. After treatment, the cells were counted and an equal number of cells was plated on Matrigel and in transwell inserts for the invasion and 3D growth assays, as described in the relevant sections. The treated and non-treated cells were similarly counted and harvested for protein and RNA extraction for western blotting and qRT-PCR, respectively. Total cellular protein was extracted as previously described. […] et al., (2019) Bioconjug Chem 30, 907-919. Protein concentration was determined by Lowry assay and equal concentration of protein extracts (40 μg) was loaded on SDS-PAGE gels, transferred onto nitrocellulose membrane and immunoblotted with primary antibodies overnight. Anti-EDB-FN antibody (G4 clone) was used at 1:1000 dilution. […]

DLD1-DR tumors = experiment: MK2206-HCl therapy of DLD1-DR tumor-bearing mice, tumor volume; format: in vivo; conditions: for average tumor volume: treated group
Description: For therapeutic monitoring, 3-4×10^6 DLD1-DR cells suspended in Matrigel-PBS mixture (1:1) were subcutaneously injected in the left flanks of 10 nude mice (100 μL per mouse, mice labeled TM1-TM10). Tumor volumes were monitored and measured once a week using a Vernier caliper. When the average tumor volumes reached 100 mm^3, mice were randomized into 2 groups of 5: vehicle (mice #TM1, TM3, TM4, TM5, & TM10) and treated (mice #TM2, TM6, TM7, TM8, & TM9). Once a week, mice in the treated group received MK2206-HCl (100 mg/kg) and those in the vehicle group were injected with equivalent volume of DMSO, as described previously. Smith, J. A., L. J. Stallons, and R. G. Schnellmann, Am J Physiol Renal Physiol, 2014. 307(4): p. F435-44. After 3 weeks of treatment, tumor volumes increased over 1000 mm^3 and the experiment was terminated. The animals were then euthanized, and the tumors were harvested for post-mortem histology and IHC. Tumor volumes were calculated as [(Width)2×Length]/2.

EDB-FN [5] = experiment: MK2206-HCl treatment, qRT-PCR of EDB-FN; format: cell-based; conditions: MDA-MB-468-DR cells, 4 μM MK2206-HCl for 2 days, vs DMSO-treated controls
Description: (§1) The invasive TGF-β-treated and drug-resistant MCF7 and MDA-MB-468 populations were treated with MK2206-HCl, a pan-AKT inhibitor, purchased from SelleckChem (Boston, MA). For this treatment, 8×10^5 cells were plated on 6-well plates. After 24 h of attachment, the cells were treated with MK2206-HCl for 2 days (2 μM dose for MCF7 cells and 4 μM dose for MDA-MB-468 cells). Cells treated with equivalent volume of DMSO were used as controls. After treatment, the cells were counted and an equal number of cells was plated on Matrigel and in transwell inserts for the invasion and 3D growth assays, as described in the relevant sections. The treated and non-treated cells were similarly counted and harvested for protein and RNA extraction for western blotting and qRT-PCR, respectively.
Total RNA was extracted from cells and tissues using the RNeasy Plus Mini Kit (Qiagen, Germantown, MD), according to manufacturer's instructions. RNA concentration was determined and 1 μg of RNA was used to set up reverse transcription using the miScript II RT Kit (Qiagen) and qPCR was performed using the SyBr Green PCR Master Mix (Applied Biosystems, CA). Gene expression was analyzed by the 2-ΔΔCt method with 18S or R-actin expression as the control.

[6] = tested on: TGF-β-treated and drug-resistant MCF7 and MDA-MB-468 cells; experiment: MK2206-HCl treatment, transwell invasion assay; format: cell-based; conditions: TGFβ-treated and drug-resistant cell derivatives; 2 μM (MCF7) or 4 μM (MDA-MB-468) for 2 days
Description: as §1
For the invasion assay, breast cancer cells were starved in serum-depleted media overnight. The next day, 1-2×10^5 cells were plated in transwell inserts (VWR, Radnor, PA) coated with 0.3 mg/mL Corning™ Matrigel™ Membrane Matrix (Corning, NY). After 1-2 days, the inserts were swabbed with Q-tips to remove the plated cells. The invading cells on the bottom of the inserts were fixed with 4% paraformaldehyde followed by staining with 0.1% crystal violet for 20 min. Excess stain was washed under tap water and images of the purple migrated cells were taken using the Moticam T2 camera with 10× objective lens.

T1 sequence (P02751 32-2267 isoform P02751-13 limits assumed): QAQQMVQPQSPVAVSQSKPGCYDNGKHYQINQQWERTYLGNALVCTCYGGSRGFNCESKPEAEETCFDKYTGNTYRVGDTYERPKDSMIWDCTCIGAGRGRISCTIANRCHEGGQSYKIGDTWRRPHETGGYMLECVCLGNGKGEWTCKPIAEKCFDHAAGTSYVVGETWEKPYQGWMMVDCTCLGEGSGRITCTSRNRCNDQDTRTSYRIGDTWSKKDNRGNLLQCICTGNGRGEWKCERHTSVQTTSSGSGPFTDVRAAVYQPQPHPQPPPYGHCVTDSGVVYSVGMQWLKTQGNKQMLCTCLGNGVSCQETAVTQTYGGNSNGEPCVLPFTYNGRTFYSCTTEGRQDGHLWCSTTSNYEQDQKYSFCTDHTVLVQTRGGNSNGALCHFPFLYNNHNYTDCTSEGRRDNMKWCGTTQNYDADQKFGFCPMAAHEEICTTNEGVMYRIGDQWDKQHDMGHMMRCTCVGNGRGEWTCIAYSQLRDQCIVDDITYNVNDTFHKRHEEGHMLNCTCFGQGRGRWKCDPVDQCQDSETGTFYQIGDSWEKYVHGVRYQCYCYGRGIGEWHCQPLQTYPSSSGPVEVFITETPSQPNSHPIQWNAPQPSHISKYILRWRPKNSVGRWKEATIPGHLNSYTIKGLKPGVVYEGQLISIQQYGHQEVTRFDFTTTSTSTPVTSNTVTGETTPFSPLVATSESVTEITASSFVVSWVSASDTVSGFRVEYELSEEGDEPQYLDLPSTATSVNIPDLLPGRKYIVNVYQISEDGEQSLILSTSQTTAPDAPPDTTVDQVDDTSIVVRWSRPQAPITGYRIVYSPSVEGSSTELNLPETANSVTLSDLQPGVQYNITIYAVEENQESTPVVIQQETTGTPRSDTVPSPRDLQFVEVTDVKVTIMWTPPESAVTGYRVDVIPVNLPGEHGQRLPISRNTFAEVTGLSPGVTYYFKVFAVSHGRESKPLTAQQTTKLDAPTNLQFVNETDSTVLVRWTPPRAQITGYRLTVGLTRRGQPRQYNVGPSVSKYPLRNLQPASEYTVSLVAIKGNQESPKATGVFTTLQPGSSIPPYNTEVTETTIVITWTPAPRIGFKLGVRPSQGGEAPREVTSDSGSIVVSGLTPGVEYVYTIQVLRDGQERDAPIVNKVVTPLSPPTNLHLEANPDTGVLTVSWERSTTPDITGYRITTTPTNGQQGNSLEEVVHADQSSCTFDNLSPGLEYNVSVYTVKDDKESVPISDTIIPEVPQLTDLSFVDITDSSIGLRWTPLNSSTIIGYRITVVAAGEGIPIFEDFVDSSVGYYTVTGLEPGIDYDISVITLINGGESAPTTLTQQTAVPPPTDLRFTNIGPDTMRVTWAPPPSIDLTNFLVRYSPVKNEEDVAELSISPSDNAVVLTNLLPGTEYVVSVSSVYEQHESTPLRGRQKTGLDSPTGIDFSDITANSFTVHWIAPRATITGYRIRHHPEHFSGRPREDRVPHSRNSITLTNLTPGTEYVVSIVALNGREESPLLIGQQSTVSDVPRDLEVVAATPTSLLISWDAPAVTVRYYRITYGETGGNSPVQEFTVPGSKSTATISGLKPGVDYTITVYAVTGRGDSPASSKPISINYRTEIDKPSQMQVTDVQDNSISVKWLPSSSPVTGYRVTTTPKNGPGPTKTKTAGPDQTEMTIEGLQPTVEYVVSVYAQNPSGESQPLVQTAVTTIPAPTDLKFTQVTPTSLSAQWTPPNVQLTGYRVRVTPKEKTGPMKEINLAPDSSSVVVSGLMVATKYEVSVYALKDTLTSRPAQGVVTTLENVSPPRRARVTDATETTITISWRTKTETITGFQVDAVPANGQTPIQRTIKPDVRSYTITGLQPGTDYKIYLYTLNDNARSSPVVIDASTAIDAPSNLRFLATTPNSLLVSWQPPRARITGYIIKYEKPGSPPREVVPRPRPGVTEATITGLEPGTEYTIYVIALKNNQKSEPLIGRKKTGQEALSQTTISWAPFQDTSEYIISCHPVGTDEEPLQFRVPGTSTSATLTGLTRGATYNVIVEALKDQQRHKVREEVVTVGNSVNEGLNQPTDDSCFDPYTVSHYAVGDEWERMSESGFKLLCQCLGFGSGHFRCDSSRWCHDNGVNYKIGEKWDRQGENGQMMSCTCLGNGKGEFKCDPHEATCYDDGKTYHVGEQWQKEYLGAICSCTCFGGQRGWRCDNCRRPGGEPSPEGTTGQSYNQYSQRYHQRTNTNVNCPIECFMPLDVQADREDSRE

ZD2-Cy5.5 binding (EDB-FN [1]; human PaCa tissue) | ZD2-Cy5.5 binding (EDB-FN [1]; normal pancreatic tissue) | ZD2-Cy5.5 binding (EDB-FN [1]; precancerous PanIN tissue) | ZD2-Cy5.5 binding in the presence of the anti-EDB-FN antibody (EDB-FN [2]) | staining intensity of SCC4 relative to HSC3 spheroids (EDB-FN [3]) | Compound | inhibition of phospho-AKT (T308 and S473) [4] | tumor response to therapy (DLD1-DR tumors; DLD1-DR tumors, MK2206-HCl 100 mg/kg once a week for 3 weeks) | average tumor volume (DLD1-DR tumors; week 1 (baseline), MK2206-HCl 100 mg/kg once a week) [mm^3] | average tumor volume (DLD1-DR tumors; week 4, after 3 weeks of MK2206-HCl 100 mg/kg once a week) [mm^3] | decrease in EDB-FN mRNA (EDB-FN [5]) | invasive potential [6]
high | low | moderate | blocked | approximately 2 fold | ZD2-Cy5.5: EDB-FN-specific fluorescent peptide probe, ZD2 peptide labeled with Cy5.5 (TVRTSAD; also: labeled with Cy5.5, site and linker not given here) |  |  |  |  |  | 
 |  |  |  |  | NC1(c2ccc(-c3nc4ccn5c(=O)[nH]nc5c4cc3-c3ccccc3)cc2)CCC1 [MK2206-HCl] | robust inhibition | did not respond to therapy | 110.5±11.97 | 1249.7±199.3 | 10-15% | reduced the invasive potential
